{"source": "paper PMC12673082", "about": "(Nature Communications, 2025)", "key": {"[1]": {"biological_target": "pdP2X7 E305F (Ailuropoda melanoleuca, UniProt G1M6C4, E306F)", "sequence (G1M6C4 2-595 E306F)": "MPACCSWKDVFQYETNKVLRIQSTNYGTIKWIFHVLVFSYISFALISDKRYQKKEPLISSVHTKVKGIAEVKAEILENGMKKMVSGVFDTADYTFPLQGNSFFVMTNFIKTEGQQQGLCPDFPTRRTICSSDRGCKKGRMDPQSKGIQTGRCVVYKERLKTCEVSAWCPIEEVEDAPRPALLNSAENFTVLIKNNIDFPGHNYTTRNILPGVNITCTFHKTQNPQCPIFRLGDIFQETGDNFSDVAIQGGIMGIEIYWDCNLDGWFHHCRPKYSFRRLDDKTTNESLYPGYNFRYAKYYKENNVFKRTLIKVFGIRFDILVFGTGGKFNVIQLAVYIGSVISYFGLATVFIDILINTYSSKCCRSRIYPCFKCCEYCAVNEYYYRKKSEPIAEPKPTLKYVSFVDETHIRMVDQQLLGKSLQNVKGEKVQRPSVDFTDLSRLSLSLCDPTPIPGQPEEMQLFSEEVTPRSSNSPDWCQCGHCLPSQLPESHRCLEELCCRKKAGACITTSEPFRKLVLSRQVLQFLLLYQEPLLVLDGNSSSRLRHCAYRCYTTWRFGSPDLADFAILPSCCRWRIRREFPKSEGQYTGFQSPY", "assay": "cell-based"}, "[2]": {"biological_target": "pdP2X7 F88A (Ailuropoda melanoleuca, UniProt G1M6C4, F89A)", "sequence (G1M6C4 2-595 F89A)": "as the sequence (G1M6C4 2-595 E306F) above, with F88A, F305E counted along it", "settings": "pd7 F88A, 10 μM"}, "[3]": {"biological_target": "pdP2X7 M105F (Ailuropoda melanoleuca, UniProt G1M6C4, M106F)", "sequence (G1M6C4 2-595 M106F)": "as the sequence (G1M6C4 2-595 E306F) above, with M105F, F305E counted along it", "settings": "pd7 M105F, 10 μM"}, "[4]": {"test_system": "pdP2X7 F103W", "assay": "Whole-cell patch clamp, pdP2X7 mutant", "format": "cell-based, giant panda", "settings": "pd7F103W, 30 μM"}, "[5]": {"biological_target": "pdP2X7 V312A (Ailuropoda melanoleuca, UniProt G1M6C4, V313A)", "sequence (G1M6C4 2-595 V313A)": "as the sequence (G1M6C4 2-595 E306F) above, with F305E, V312A counted along it", "settings": "pd7 V312A, 10 μM"}, "[6]": {"biological_target": "hP2X2 (Homo sapiens, UniProt Q9UBL9)", "sequence (Q9UBL9 whole entry)": "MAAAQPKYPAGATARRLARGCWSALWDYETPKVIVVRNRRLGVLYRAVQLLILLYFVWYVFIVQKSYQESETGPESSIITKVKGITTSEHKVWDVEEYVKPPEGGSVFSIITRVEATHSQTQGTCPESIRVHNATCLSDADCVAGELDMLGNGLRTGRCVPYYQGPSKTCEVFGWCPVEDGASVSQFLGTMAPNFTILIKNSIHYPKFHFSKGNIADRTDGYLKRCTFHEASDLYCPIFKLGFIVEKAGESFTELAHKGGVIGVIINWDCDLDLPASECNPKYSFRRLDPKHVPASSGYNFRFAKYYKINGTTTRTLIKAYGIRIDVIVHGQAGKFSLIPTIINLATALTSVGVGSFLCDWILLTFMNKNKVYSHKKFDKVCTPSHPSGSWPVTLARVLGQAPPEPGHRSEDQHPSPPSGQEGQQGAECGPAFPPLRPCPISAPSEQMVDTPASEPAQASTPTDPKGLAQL", "assay": "Whole-cell patch clamp, ATP-evoked current, transfected HEK293", "format": "cell-based", "settings": "HEK293, read-out: inhibition rate"}, "[7]": {"biological_target": "pdP2X7 F103A (Ailuropoda melanoleuca, UniProt G1M6C4, F104A)", "sequence (G1M6C4 2-595 F104A)": "as the sequence (G1M6C4 2-595 E306F) above, with F103A, F305E counted along it", "settings": "pd7 F103A, 10 μM"}, "[8]": {"biological_target": "mP2X7 Y108F/A312V (Mus musculus, UniProt Q9Z1M0, A312V/Y108F)", "sequence (Q9Z1M0 whole entry Y108F/A312V)": "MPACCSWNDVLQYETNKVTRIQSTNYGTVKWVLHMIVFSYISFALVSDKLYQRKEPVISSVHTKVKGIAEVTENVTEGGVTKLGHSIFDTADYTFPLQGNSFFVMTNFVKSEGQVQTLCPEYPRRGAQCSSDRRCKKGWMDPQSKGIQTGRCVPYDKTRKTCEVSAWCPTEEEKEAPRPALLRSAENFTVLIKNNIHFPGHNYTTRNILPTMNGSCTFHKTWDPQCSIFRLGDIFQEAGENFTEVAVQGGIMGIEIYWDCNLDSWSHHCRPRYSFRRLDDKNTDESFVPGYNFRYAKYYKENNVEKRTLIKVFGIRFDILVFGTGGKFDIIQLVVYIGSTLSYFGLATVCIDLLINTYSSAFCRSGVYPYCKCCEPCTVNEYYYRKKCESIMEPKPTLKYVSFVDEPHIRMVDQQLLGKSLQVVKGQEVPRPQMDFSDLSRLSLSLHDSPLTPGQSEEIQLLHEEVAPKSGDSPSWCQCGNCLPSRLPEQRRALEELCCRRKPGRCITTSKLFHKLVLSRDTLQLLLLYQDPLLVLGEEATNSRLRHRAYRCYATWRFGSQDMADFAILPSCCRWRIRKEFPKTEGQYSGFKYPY", "assay": "Whole-cell patch clamp, mP2X7 mutant", "format": "cell-based", "settings": "1 μM"}, "[9]": {"test_system": "pdP2X7 Y298A", "assay": "Whole-cell patch clamp, pdP2X7 mutant", "format": "cell-based, giant panda", "settings": "pd7Y298A, 30 μM"}, "[10]": {"test_system": "pdP2X7 K297R", "assay": "Whole-cell patch clamp, pdP2X7 mutant", "format": "cell-based, giant panda", "settings": "pd7K297R, 30 μM"}, "[11]": {"biological_target": "pdP2X7 P96G (Ailuropoda melanoleuca, UniProt G1M6C4, P97G)", "sequence (G1M6C4 2-595 P97G)": "as the sequence (G1M6C4 2-595 E306F) above, with P96G, F305E counted along it", "settings": "pd7 P96G, 10 μM"}, "[12]": {"biological_target": "T1, mP2X7 (Mus musculus, UniProt Q9Z1M0)", "T1 sequence (Q9Z1M0 1-595)": "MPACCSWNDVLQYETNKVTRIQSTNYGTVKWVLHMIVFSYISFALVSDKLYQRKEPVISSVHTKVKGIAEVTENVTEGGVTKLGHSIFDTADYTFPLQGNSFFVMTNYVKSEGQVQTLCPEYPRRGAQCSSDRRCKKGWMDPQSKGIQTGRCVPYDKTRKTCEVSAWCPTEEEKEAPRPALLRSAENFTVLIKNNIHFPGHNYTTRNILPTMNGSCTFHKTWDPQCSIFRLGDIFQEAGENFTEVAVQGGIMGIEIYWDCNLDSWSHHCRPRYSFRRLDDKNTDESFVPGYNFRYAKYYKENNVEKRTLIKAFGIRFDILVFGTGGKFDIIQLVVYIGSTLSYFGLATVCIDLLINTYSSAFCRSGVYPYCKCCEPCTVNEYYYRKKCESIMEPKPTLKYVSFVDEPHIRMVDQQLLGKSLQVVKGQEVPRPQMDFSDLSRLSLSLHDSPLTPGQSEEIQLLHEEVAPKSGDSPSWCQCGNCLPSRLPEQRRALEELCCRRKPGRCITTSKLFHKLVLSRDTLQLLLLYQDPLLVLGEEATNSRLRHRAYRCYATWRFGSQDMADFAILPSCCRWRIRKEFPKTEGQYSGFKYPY", "assay": "Whole-cell patch clamp, ATP-evoked current, transfected HEK293", "format": "cell-based", "settings": "HEK293, read-out: inhibition rate"}, "[13]": {"biological_target": "hP2X3 (Homo sapiens, UniProt P56373)", "sequence (P56373 whole entry)": "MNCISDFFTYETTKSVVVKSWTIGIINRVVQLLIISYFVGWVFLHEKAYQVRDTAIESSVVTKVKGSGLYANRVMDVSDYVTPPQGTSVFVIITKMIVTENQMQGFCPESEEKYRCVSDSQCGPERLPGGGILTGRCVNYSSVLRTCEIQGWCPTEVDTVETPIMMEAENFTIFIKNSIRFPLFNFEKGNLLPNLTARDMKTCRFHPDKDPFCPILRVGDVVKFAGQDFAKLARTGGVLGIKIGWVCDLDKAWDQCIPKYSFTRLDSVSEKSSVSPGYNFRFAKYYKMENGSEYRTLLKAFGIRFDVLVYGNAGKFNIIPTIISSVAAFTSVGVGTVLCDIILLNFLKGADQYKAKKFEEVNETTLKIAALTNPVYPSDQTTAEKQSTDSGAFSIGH", "assay": "Nystatin-perforated patch recording, ATP-evoked current, HEK293", "format": "cell-based", "settings": "HEK293, read-out: inhibition rate"}, "[14]": {"biological_target": "pdP2X7 F95A (Ailuropoda melanoleuca, UniProt G1M6C4, F96A)", "sequence (G1M6C4 2-595 F96A)": "as the sequence (G1M6C4 2-595 E306F) above, with F95A, F305E counted along it", "settings": "pd7 F95A, 10 μM"}}}
{"smiles": "C=CC[C@@H]1c2ccc(OC)c(OC)c2CN2CCc3cc4c(cc3[C@H]12)OCO4", "note": "[PSFL1191, (13R,13aS)-13-allyl-9,10-dimethoxy-5,8,13,13a-tetrahydro-6H-1,3dioxolo[4,5-g]isoquinolino[3,2-a]isoquinoline]", "values": [{"measurement": "IC50", "setting": "[1]", "result": "1570 ± 360", "unit": "nM"}, {"measurement": "inhibitory effect on ATP (1 mM)-induced activation (inhibition ratio)", "setting": "[2]", "result": "significantly attenuated"}, {"measurement": "inhibitory effect on ATP (1 mM)-induced activation (inhibition ratio)", "setting": "[3]", "result": "significantly attenuated"}, {"measurement": "inhibition rate", "setting": "[4]", "result": "≤ 50", "unit": "%"}, {"measurement": "inhibitory effect on ATP (1 mM)-induced activation (inhibition ratio)", "setting": "[5]", "result": "significantly attenuated"}, {"measurement": "inhibition at 30 µM", "setting": "[6]", "result": "3.09 ± 7.46", "unit": "%"}, {"measurement": "inhibitory effect on ATP (1 mM)-induced activation (inhibition ratio)", "setting": "[7]", "result": "significantly attenuated"}, {"measurement": "fold increase of inhibition compared to m7WT", "setting": "[8]", "result": "~26", "unit": "fold"}, {"measurement": "inhibition rate", "setting": "[9]", "result": "≤ 50", "unit": "%"}, {"measurement": "inhibition rate", "setting": "[10]", "result": "≤ 50", "unit": "%"}, {"measurement": "inhibitory effect on ATP (1 mM)-induced activation (inhibition ratio)", "setting": "[11]", "result": "significantly attenuated"}, {"measurement": "inhibition at 30 µM", "setting": "[12]", "result": "13.3 ± 3.04", "unit": "%"}, {"measurement": "inhibition at 30 µM", "setting": "[13]", "result": "20.6 ± 6.4", "unit": "%"}, {"measurement": "inhibitory effect on ATP (1 mM)-induced activation (inhibition ratio)", "setting": "[14]", "result": "did not"}]}
